Assays:
Conditions in all cases: 72 h
[1] = system: myeloid leukemia patient primary cells Pat.5; test: area under dose-response curve (viability, 1 nM-10 uM) (fraction (0-1)); higher = more sensitive
In short: (§1)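 Thawed mononuclear cells from AML or CML patients were purified on Ficoll and cultured for 72 h in RPMI 1640 with 10% FBS, at 10,000 cells/well, on 384-well plates carrying 70 pre-printed compounds at 1–10,000 nM in five tenfold steps, in duplicate. Viability came from CellTiter-Glo, normalised against DMSO and against 10 μM proteasome inhibitor. Any area under the curve given was derived from log-logistic curve fits in the drc and PharmacoGx R packages, and these fits had four parameters.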

[2] = system: myeloid leukemia patient primary cells Pat.8; test: as above
In short: as §1

[3] = system: myeloid leukemia patient primary cells Pat.11; test: as above
In short: as §1

[4] = system: myeloid leukemia patient primary cells Pat.4; test: as above
In short: as §1

[5] = system: myeloid leukemia patient primary cells Pat.12; test: as above
In short: as §1

[6] = system: myeloid leukemia patient primary cells Pat.6; test: as above
In short: as §1

[7] = system: myeloid leukemia patient primary cells Pat.14; test: as above
In short: as §1

[8] = system: myeloid leukemia patient primary cells Pat.7; test: as above
In short: as §1

[9] = system: myeloid leukemia patient primary cells Pat.15; test: as above
In short: as §1

[10] = system: myeloid leukemia patient primary cells Pat.3; test: as above
In short: as §1

[11] = system: myeloid leukemia patient primary cells Pat.10; test: as above
In short: as §1

[12] = system: myeloid leukemia patient primary cells Pat.9; test: as above
In short: as §1

[13] = system: myeloid leukemia patient primary cells Pat.13; test: as above
In short: as §1

[14] = system: myeloid leukemia patient primary cells Pat.2; test: as above
In short: as §1

[15] = system: myeloid leukemia patient primary cells Pat.1; test: as above
In short: as §1

[16] = system: myeloid leukemia patient primary cells Pat.12; test: cell viability (% survival relative to DMSO control); higher = less cytotoxic
In short: as §1

[17] = system: myeloid leukemia patient primary cells Pat.15; test: as above
In short: as §1

[18] = system: myeloid leukemia patient primary cells Pat.3; test: as above
In short: as §1

[19] = system: myeloid leukemia patient primary cells Pat.10; test: as above
In short: as §1

[20] = system: myeloid leukemia patient primary cells Pat.13; test: as above
In short: as §1

[21] = system: myeloid leukemia patient primary cells Pat.2; test: as above
In short: as §1

[22] = system: KG-1; test: cell viability (% survival relative to DMSO control, bortezomib = 0%); higher = less cytotoxic
In short: (§2)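 Fifteen myeloid leukaemia cell lines (10 AML, 5 CML) were seeded at a density titrated to the linear growth range. They went into 384-well plates with compounds pre-printed at 1, 10, 100, 1000 or 10000 nM in duplicate. After 72 h at 37 °C with 5% CO2, viability was read by CellTiter-Glo luminescence. Values are percent survival, with vehicle set to 100% and a 10 µM positive control to 0%, averaged over the duplicates.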

[23] = system: MOLM-13; test: as above
In short: as §2

[24] = system: THP-1; test: as above
In short: as §2

[25] = system: MV4-11; test: as above
In short: as §2

CC[C@@]1(O)C(=O)OCc2c1cc1n(c2=O)Cc2cc3c(CN(C)C)c(O)ccc3nc2-1 [Topotecan]
Conditions	area under dose-response curve
[1]	0.426
[2]	0.0586
[3]	0.0826
[4]	0.132
[5]	0.0406
[6]	0.147
[7]	0.231
[8]	0.282
[9]	0.225
[10]	0.54
[11]	0.507
[12]	0.245
[13]	0.0753
[14]	0.127
[15]	0.0609

cell viability [%]
Conditions	[16]	[17]	[18]	[19]	[20]	[21]	[22]	[23]	[24]	[25]
1 nM	95.3	95.4	90.9	84.6	85.7	90.7	95.6	91.4	98.8	91.1
10 nM	97	89.4	89.8	88.3	91.7	92.9	91.2	70.9	102	54.2
100 nM	92.1	83.5	20	35.4	92.3	95.9	21.3	0.317	78.5	2
1000 nM	93.5	54.8	18.6	6.65	97.4	72	8.99	2.79	30.4	2.09
10000 nM	48.3	0.856	2.85	1.3	21.9	39.5	6.8	0.537	13.6	-0.156
